Here are results for 2 compounds from ChEMBL document CHEMBL5678818, “Discovery of potent SOS1 inhibitors that block RAS activation via disruption of the RAS-SOS1 interaction” (Proc Natl Acad Sci U S A, 2019).

The structures appear in SMILES notation.

Assay [1] addresses T1, Serine/threonine-protein kinase ULK2 (Homo sapiens) (UniProt Q8IYT8).
T1 sequence (whole entry): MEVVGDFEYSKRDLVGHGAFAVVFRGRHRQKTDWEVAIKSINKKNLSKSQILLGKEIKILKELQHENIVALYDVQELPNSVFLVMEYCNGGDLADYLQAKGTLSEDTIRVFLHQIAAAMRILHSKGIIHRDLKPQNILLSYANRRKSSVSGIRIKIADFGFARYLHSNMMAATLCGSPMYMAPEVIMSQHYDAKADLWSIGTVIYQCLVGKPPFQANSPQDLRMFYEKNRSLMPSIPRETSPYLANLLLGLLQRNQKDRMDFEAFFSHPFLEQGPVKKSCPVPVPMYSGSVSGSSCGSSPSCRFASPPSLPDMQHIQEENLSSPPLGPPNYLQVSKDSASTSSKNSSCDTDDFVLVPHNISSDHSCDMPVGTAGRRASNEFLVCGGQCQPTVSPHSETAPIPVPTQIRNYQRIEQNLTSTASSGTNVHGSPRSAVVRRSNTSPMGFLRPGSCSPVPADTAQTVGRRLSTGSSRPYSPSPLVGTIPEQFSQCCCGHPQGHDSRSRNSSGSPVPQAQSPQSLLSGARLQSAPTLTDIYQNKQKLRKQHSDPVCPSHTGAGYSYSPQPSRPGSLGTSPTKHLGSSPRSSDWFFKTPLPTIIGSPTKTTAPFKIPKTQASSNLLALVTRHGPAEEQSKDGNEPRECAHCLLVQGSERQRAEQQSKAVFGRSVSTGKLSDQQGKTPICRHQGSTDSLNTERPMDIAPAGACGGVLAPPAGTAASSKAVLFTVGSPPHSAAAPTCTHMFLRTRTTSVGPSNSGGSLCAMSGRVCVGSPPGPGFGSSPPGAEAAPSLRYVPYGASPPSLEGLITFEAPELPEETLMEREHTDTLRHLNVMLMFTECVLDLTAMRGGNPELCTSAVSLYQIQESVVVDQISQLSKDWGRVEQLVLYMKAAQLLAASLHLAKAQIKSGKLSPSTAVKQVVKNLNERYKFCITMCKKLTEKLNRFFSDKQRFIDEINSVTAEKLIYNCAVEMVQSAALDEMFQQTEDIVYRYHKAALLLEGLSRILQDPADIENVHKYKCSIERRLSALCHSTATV
The experiment in a line: Inhibition of ULK2 (unknown origin) assessed as residual activity at 1000 nM by KINOMEscan analysis relative to control.

Assay [2] concerns the target T2, Mitogen-activated protein kinase kinase kinase kinase 3 (Homo sapiens) (UniProt Q8IVH8).
T2 sequence (whole entry): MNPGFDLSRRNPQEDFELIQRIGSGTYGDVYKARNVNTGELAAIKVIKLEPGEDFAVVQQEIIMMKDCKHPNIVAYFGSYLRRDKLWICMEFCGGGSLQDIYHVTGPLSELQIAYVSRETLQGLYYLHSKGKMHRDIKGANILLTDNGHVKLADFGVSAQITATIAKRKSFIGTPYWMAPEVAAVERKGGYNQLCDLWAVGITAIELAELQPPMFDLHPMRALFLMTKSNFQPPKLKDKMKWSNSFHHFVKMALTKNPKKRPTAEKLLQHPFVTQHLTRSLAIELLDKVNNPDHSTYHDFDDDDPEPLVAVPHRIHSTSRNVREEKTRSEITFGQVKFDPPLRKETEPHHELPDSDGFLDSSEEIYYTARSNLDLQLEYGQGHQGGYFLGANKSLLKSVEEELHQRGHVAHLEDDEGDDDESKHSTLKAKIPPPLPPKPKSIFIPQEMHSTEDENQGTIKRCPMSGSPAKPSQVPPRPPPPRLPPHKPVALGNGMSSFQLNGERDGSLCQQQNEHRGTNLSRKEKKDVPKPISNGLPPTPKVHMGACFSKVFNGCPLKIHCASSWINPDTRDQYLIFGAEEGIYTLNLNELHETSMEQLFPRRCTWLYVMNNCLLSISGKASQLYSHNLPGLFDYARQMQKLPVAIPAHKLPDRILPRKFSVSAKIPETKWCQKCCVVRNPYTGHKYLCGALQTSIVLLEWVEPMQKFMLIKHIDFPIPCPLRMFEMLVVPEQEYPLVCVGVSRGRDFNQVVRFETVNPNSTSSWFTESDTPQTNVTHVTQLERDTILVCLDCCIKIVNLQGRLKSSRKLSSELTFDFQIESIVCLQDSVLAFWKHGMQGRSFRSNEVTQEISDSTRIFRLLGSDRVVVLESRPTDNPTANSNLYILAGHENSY
The experiment in a line: Inhibition of MAP4K3 (unknown origin) assessed as residual activity at 1000 nM by KINOMEscan analysis relative to control.

The target in assay [3] is T3, Serine/threonine-protein kinase D3 (Homo sapiens) (UniProt O94806).
T3 sequence (whole entry): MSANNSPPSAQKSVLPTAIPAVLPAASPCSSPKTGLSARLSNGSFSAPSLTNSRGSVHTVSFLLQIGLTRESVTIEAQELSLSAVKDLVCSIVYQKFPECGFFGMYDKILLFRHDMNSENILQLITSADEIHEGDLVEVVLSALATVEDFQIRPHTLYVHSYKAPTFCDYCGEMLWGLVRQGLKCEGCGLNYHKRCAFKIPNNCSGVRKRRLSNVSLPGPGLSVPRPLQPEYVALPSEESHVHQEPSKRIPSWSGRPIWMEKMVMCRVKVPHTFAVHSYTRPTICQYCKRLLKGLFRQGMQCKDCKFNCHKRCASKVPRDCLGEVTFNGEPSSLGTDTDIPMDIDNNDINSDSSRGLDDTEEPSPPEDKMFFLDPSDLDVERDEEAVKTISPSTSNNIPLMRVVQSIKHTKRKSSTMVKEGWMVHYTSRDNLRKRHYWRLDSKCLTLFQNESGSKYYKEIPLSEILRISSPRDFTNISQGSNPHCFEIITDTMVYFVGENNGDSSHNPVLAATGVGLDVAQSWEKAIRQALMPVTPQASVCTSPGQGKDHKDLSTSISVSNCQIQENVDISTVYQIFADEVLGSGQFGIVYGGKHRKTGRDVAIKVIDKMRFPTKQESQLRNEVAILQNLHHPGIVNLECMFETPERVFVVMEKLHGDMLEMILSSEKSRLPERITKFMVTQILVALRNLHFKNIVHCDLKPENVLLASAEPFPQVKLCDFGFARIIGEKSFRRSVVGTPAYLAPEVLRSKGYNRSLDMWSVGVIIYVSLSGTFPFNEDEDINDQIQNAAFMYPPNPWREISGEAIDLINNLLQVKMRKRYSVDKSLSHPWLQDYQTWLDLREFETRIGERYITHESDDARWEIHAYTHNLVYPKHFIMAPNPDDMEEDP
The experiment in a line: Inhibition of PRKD3 (unknown origin) assessed as residual activity at 1000 nM by KINOMEscan analysis relative to control.

Assay [4] concerns the target Tyrosine-protein kinase JAK1 (Homo sapiens) (UniProt P23458). Description: Inhibition of JAK1 JH1 catalytic domain (unknown origin) assessed as residual activity at 1000 nM by KINOMEscan analysis relative to control.
The target of assay [5] is Tyrosine-protein kinase ABL1 (Homo sapiens) (UniProt P00519). The experiment in a line: Inhibition of phosphorylated ABL1 (unknown origin) assessed as residual activity at 1000 nM by KINOMEscan analysis relative to control.
Chain of Tyrosine-protein kinase ABL1 (Homo sapiens) (P00519 whole entry): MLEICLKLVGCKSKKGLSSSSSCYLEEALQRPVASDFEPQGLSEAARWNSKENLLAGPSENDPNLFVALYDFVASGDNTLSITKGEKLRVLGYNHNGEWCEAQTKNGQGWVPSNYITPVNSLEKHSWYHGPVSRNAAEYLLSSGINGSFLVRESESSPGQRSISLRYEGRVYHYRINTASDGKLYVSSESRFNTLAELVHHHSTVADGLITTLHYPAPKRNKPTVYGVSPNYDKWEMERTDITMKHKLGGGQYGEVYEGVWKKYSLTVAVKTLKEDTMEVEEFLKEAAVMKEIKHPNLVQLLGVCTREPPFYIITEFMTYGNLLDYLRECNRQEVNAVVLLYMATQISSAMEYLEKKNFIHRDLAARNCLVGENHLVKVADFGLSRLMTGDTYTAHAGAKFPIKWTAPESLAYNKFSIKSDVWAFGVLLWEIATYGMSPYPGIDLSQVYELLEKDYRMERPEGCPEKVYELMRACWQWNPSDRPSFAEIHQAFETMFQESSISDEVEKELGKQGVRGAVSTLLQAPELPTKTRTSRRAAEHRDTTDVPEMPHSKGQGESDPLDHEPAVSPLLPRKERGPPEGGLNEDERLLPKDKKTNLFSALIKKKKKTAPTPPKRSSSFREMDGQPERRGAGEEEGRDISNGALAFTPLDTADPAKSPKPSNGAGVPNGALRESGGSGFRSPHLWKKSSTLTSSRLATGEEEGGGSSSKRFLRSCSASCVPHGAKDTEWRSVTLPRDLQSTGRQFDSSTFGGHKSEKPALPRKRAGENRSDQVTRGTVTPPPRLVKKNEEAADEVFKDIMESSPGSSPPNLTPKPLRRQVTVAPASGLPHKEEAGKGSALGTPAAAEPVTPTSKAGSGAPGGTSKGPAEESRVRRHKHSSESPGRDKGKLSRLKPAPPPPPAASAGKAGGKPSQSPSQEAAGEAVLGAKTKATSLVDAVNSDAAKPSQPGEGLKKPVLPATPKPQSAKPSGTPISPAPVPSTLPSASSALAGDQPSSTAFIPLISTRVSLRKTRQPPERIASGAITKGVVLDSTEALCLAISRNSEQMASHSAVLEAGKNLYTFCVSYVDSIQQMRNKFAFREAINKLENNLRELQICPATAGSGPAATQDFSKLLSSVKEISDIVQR

Chain of Tyrosine-protein kinase JAK1 (Homo sapiens) (P23458 whole entry, the tested form may be a part): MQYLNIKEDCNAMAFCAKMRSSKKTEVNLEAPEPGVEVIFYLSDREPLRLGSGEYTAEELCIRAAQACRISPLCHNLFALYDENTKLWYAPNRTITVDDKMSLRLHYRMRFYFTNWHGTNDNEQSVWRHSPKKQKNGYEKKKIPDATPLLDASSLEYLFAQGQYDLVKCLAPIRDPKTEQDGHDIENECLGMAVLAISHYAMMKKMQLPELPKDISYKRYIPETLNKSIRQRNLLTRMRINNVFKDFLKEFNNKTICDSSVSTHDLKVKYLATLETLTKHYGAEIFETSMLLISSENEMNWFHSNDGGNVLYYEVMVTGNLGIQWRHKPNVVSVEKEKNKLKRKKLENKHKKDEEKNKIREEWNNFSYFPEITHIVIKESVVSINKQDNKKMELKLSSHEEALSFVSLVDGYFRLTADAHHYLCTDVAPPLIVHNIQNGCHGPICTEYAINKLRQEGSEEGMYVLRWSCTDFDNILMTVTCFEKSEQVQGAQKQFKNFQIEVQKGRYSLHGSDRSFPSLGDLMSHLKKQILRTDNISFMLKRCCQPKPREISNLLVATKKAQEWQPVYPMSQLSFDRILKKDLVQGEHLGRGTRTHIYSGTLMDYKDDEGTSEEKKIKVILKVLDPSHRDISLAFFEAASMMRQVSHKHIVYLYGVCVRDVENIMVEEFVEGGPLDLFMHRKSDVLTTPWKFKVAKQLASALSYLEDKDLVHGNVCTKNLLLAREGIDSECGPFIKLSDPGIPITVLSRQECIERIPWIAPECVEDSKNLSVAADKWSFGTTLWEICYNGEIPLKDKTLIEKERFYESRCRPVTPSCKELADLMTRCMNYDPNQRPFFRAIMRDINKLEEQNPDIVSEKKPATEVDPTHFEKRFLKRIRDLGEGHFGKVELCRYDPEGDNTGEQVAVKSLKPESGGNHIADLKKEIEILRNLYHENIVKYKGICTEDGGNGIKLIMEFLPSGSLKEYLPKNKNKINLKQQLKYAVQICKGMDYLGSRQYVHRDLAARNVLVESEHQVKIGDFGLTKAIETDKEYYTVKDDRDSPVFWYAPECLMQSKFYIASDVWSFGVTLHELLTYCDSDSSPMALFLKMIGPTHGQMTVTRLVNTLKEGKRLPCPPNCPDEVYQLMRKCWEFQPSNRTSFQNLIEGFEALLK

`COc1cc2nc(C)nc(N[C@H](C)c3cccc(-c4cn[nH]c4)c3)c2cc1OC`: the Activity amounted to 60% in assay [1]; 90% in assay [2]; 100% in assay [3]; 100% in assay [4]; 81% in assay [5].

Consider `COc1cc2ncnc(N[C@H](C)c3cccc4ccccc34)c2cc1OC`, for which the Activity was 92% in assay [1]; 100% in assay [2]; 100% in assay [3]; 87% in assay [4]; 97% in assay [5].
